Where a SMILES comes first, the peptide text is derived from it. Bridges are numbered along the chain shown (N, C = ends). Roman numbers before positions name the chains, in order. [ ]: non-standard residue; d: D form. Tle = CC(C)(C)[C@H](N)C(=O)O; Nle = CCCC[C@H](N)C(=O)O; Orn = NCCC[C@H](N)C(=O)O; Dab = NCC[C@H](N)C(=O)O; Dap = NC[C@H](N)C(=O)O
What was measured:
Type in all cases: cell-based
[1] = test system: Acinetobacter baumannii 872842; settings: 872842
[2] = test system: Acinetobacter baumannii DSM 30008; settings: DSM 30008
Summary of the method: (§1)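 Peptide stocks (1 mg/mL, water) were diluted two-fold into MH-II broth with 0.002% P-80 and mixed with approx. 10^6 CFU/mL bacteria. Plates were read visually after 18-20 hours at 35° C, with MIC expressed in μg/mL per CLSI.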

Escherichia coli 926415 = settings: 926415
[3] = test system: Escherichia coli ATCC 25922; settings: ATCC 25922
Summary of the method: as §1

[4] = test system: Klebsiella pneumoniae 968733; settings: 968733
[5] = test system: Klebsiella pneumoniae SSI #3010; settings: SSI #3010
Summary of the method: as §1

[6] = test system: Pseudomonas aeruginosa ATCC 27853; settings: ATCC 27853
Summary of the method: as §1

[7] = test system: human red blood cells (hRBC); assay: Hemolysis of human red blood cells; settings: red cells of human, 1 h
Summary of the method: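 Each peptide was tested at a single concentration, 100 μg/mL. Erythrocytes (20% v/v) were incubated 1 h at 37° C. under shaking at 300 rpm, centrifuged, and released hemoglobin measured at OD540. Controls were PBS containing 0.001% acetic acid (0%) and Triton X-100 (100%).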

Structure (SMILES) | Acinetobacter baumannii 872842 MIC [1] | Acinetobacter baumannii DSM 30008 MIC [2] | Escherichia coli 926415 MIC (Escherichia coli 926415) | Escherichia coli ATCC 25922 MIC [3] | Klebsiella pneumoniae 968733 MIC [4] | Klebsiella pneumoniae SSI #3010 MIC [5] | Pseudomonas aeruginosa ATCC 27853 MIC [6] | Hemolysis at 100 μg/mL ([7]; 100 μg/mL) | Hemolysis at 100 μg/mL [7]; 100
CCCC[C@@H]1NC(=O)[C@@H]2CCCN2C(=O)[C@H]2CCCN2C(=O)[C@H](CO)NC(=O)[C@H](C)NC(=O)[C@H](C(C)(C)C)NC(=O)[C@@H](NC(=O)[C@H](Cc2c[nH]c3ccccc23)NC(C)=O)CSSC[C@@H](C(=O)N[C@@H](CCN)C(=O)N[C@H](C(=O)N[C@H](C)C(=O)N[C@@H](CCN)C(=O)N[C@H]2CCNC(=O)[C@H]([C@@H](C)O)NC(=O)[C@H](CCN)NC(=O)[C@H](CCN)NC(=O)[C@H](CC(C)C)NC(=O)[C@@H](Cc3ccccc3)NC(=O)[C@H](CCN)NC2=O)[C@@H](C)O)NC(=O)[C@H](Cc2ccc(O)cc2)NC(=O)[C@H](CO)NC1=O [Ex. 32] (Ac-WC[Tle]AS[dP]P[Nle]SYC[Dab]T[dA][Dab][Dab][Dab][dF]L[Dab][Dab]T; disulfide 2-11; lactam 16-C) | 0.25 µg/mL | 0.125 µg/mL | 0.5 µg/mL | 0.125 µg/mL | 1 µg/mL | 0.25 µg/mL | 0.25 µg/mL | 2% | –
CCCC[C@@H]1NC(=O)[C@@H]2CCCN2C(=O)[C@H]2CCCN2C(=O)[C@H](CO)NC(=O)[C@H](C)NC(=O)[C@H](C(C)(C)C)NC(=O)[C@H](CCN)NC(=O)[C@H](Cc2c[nH]c3ccccc23)NC(=O)[C@@H](NC(C)=O)CCNC(=O)CC[C@@H](C(=O)N[C@@H](CCN)C(=O)N[C@H]2CCNC(=O)[C@H]([C@@H](C)O)NC(=O)[C@H](CCN)NC(=O)[C@H](CCN)NC(=O)[C@H](CC(C)C)NC(=O)[C@@H](Cc3ccccc3)NC(=O)[C@H](CCN)NC2=O)NC(=O)[C@H](CCCN)NC(=O)[C@H](CCN)NC(=O)[C@H](Cc2ccc(O)cc2)NC(=O)[C@H](CO)NC1=O [Ex. 59] (Ac-[Dab]W[Dab][Tle]AS[dP]P[Nle]SY[Dab][Orn]E[Dab][Dab][Dab][dF]L[Dab][Dab]T; lactam 1-14, 16-C) | 2 µg/mL | 0.5 µg/mL | 0.5 µg/mL | 0.25 µg/mL | 2 µg/mL | 0.5 µg/mL | 1 µg/mL | – | <1%
CC(=O)N[C@@H](Cc1c[nH]c2ccccc12)C(=O)N[C@@H](CCN)C(=O)N[C@H](C(=O)N[C@H]1CC(=O)NCC[C@@H](C(=O)N[C@@H](Cc2ccc(O)cc2)C(=O)N[C@@H](CCN)C(=O)N[C@H](C(=O)N[C@@H](CCN)C(=O)N[C@@H](CCN)C(=O)N[C@@H](CCN)C(=O)N[C@H]2CCNC(=O)[C@H]([C@@H](C)O)NC(=O)[C@H](CCN)NC(=O)[C@H](CCN)NC(=O)[C@H](CC(C)C)NC(=O)[C@@H](Cc3ccccc3)NC(=O)[C@H](CCN)NC2=O)[C@@H](C)O)NC(=O)[C@H](C(C)C)NC(=O)[C@@H]2CCCN2C(=O)[C@H]2CCCN2C(=O)[C@H](Cc2c[nH]cn2)NC1=O)C(C)(C)C [Ex. 167] (Ac-W[Dab][Tle]DH[dP]PV[Dab]Y[Dab]T[Dab][Dab][Dab][Dab][Dab][dF]L[Dab][Dab]T; lactam 4-9, 16-C) | 1 µg/mL | 0.5 µg/mL | 1 µg/mL | 0.25 µg/mL | 2 µg/mL | 0.25 µg/mL | 0.125 µg/mL | – | <1%
CC(C)C[C@@H]1NC(=O)[C@H](CO)NC(=O)[C@H](Cc2ccc(O)cc2)NC(=O)[C@@H]2CCCN2C(=O)[C@H]2CCCN2C(=O)[C@H](Cc2ccc(O)cc2)NC(=O)[C@H](C)NC(=O)[C@H](C(C)C)NC(=O)[C@@H](NC(=O)[C@@H](N)Cc2c[nH]c3ccccc23)CSSC[C@@H](C(=O)NCC(=O)N[C@@H](CCN)C(=O)N[C@H](C(=O)N[C@@H](CCN)C(=O)N[C@H]2CCNC(=O)[C@H]([C@@H](C)O)NC(=O)[C@H](CCN)NC(=O)[C@H](CCN)NC(=O)[C@H](CC(C)C)NC(=O)[C@@H](CC(C)C)NC(=O)[C@H](CCN)NC2=O)[C@@H](C)O)NC1=O [Ex. 153] (H-WCVAY[dP]PYSLCG[Dab]T[Dab][Dab][Dab][dL]L[Dab][Dab]T; disulfide 2-11; lactam 16-C) | 0.03125 µg/mL | 0.125 µg/mL | 0.125 µg/mL | 0.0625 µg/mL | 0.0625 µg/mL | 0.0625 µg/mL | 0.5 µg/mL | <1% | –
CCCC[C@@H]1NC(=O)[C@@H]2CCCN2C(=O)[C@H]2CCCN2C(=O)[C@H](CO)NC(=O)[C@H](C)NC(=O)[C@H](C(C)(C)C)NC(=O)[C@H](CCN)NC(=O)[C@H](Cc2c[nH]c3ccccc23)NC(=O)[C@H](CCN)NC(=O)[C@H](CC(=O)N[C@@H](CCN)C(=O)N[C@@H](CCN)C(=O)N[C@H]2CCNC(=O)[C@H]([C@@H](C)O)NC(=O)[C@H](CCN)NC(=O)[C@H](CCN)NC(=O)[C@H](CC(C)C)NC(=O)[C@@H](Cc3ccccc3)NC(=O)[C@H](CCN)NC2=O)NC(=O)[C@H](CCCN)NC(=O)[C@H](CCN)NC(=O)[C@H](Cc2ccc(O)cc2)NC(=O)[C@H](CO)NC1=O [Ex. 4] (I: cyclo([Nle]SY[Dab][Orn]D[Dab]W[Dab][Tle]AS[dP]P) / II: [Dab][Dab][Dab][Dab][dF]L[Dab][Dab]T; amide I:6-II:N; lactam II:3-II:C) | 2 µg/mL | 1 µg/mL | 1 µg/mL | 1 µg/mL | 8 µg/mL | 1 µg/mL | 0.25 µg/mL | – | 1%
CCCC[C@@H]1NC(=O)[C@@H]2CCCN2C(=O)[C@H]2CCCN2C(=O)[C@H](CO)NC(=O)[C@H](C)NC(=O)[C@H](C(C)(C)C)NC(=O)[C@@H](NC(=O)[C@H](Cc2c[nH]c3ccccc23)NC(C)=O)CSSC[C@@H](C(=O)N[C@@H](CCN)C(=O)N[C@H](C(=O)N[C@@H](CCN)C(=O)N[C@H]2CCNC(=O)[C@H]([C@@H](C)O)NC(=O)[C@H](CNC(=O)[C@@H](N)CCC(=O)O)NC(=O)[C@H](CCN)NC(=O)[C@H](CC(C)C)NC(=O)[C@@H](Cc3ccccc3)NC(=O)[C@H](CCN)NC2=O)[C@@H](C)O)NC(=O)[C@H](Cc2ccc(O)cc2)NC(=O)[C@H](CO)NC1=O [Ex. 25] (Ac-WC[Tle]AS[dP]P[Nle]SYC[Dab]T[Dab][Dab][Dab][dF]L[Dab][Dap](Glu)T; disulfide 2-11; lactam 15-C) | 1 µg/mL | 1 µg/mL | 3 µg/mL | 2 µg/mL | 8 µg/mL | 4 µg/mL | 4 µg/mL | 3% | –

From patent US10829520B2, “Beta-hairpin peptidomimetics” (POLYPHOR AG, priority 2015, dated 2020)
